Holding throughout (test): inhibition of tumour cell growth, NCI panel, 48 h
Experiment [1] has as its system MDA-MB-231 breast.
The test system of experiment [2] is SN12C renal.
Experiment [3] relates to DU-145 prostate.
The subject of experiment [4] is NCI-H226 lung.
The test system of experiment [5] is NCI-H460 lung.
In experiment [6] the test system is IGROV1 ovarian.
Experiment [7] deals with NCI-H522 lung.
Experiment [8] deals with HOP-92 NSCLC.
Experiment [9] has as its system SW-620 colon.
The subject of experiment [10] is RPMI-8226 leukemia.

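All cell lines were grown in 96-well plates and treated with compound for 48 hours. At the GI50, growth is halved. TGI denotes the concentration required for complete inhibition of growth.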

Consider `C=C1C(=O)O[C@H]2[C@H]1CC/C(COC(=O)CCCc1c[nH]c3ccccc13)=C\CC[C@@]1(C)O[C@@H]21`, for which the GI50 is 1.78 µM in experiment [1]; 1.9 µM in experiment [2]; 1.67 µM in experiment [3]; 2.04 µM in experiment [4]; 4.54 µM in [5]; 1.63 µM in experiment [6]. Also, the GI50 was 1.57 µM in experiment [7], 1.68 µM in experiment [8], 1.84 µM in experiment [9] and 2.31 µM in [10]. Also, the TGI stood at 3.7 µM in [1]; 4.44 µM in experiment [2]; 3.18 µM in [3]; 4.38 µM in [4]; 19.2 µM in [5]; 3.61 µM in experiment [6]. Further, the TGI turned out to be 3.47 µM in experiment [7], 3.46 µM in experiment [8], 4.36 µM in experiment [9] and 6.09 µM in [10].

On to `CN(C)CCCC1(c2ccc(F)cc2)OCc2cc(-c3cc4ccccc4s3)ccc21` (configuration not stated), for which the GI50 in experiment [1] was 1.52 µM; in experiment [2], 1.57 µM; in [3], 1.79 µM; in experiment [5], 1.93 µM; in experiment [6] it was 1.14 µM; in experiment [7], 1.7 µM. The values for the GI50 in [8] and in [9] were 1.33 µM and 1.74 µM, respectively. The TGI in experiment [1] came out at 2.95 µM; in experiment [2], 2.94 µM; in [3], 3.24 µM; in [5], 3.67 µM; in experiment [6], 2.46 µM; in experiment [7], 3.28 µM. For the same compound, the TGI in [8] amounted to 2.95 µM; in experiment [9], 3.4 µM.

As to `O=C(C#Cc1ccccc1)C1=Cc2ccccc2OC1`, the TGI is 10.5 µM in experiment [1]; greater than 100 µM in experiment [2]; 20.7 µM in [3]; 8.36 µM in experiment [4]; 23.7 µM in experiment [5]; 6.37 µM in [6]. Further, the values for the TGI in experiment [7], in [9] and in experiment [10] were 3.42 µM, 9.84 µM and 58.7 µM, respectively.

In the case of `CCCCCCCCCCCCCCCCCCNC(=S)/N=C/c1c(O)c2ccccc2[nH]c1=O`, the TGI was 30.3 µM in experiment [1]; 41 µM in [2]; 29.7 µM in experiment [3]; 63.3 µM in experiment [4]; 32.6 µM in experiment [5]; 21.2 µM in experiment [6]. The TGI was 32.7 µM in experiment [8] and 42.4 µM in [9].

`CO/N=C(\C([O-])=N\[n+]1cnn(CC(=O)OC(C)(C)C)c1)c1csc(NC(c2ccccc2)(c2ccccc2)c2ccccc2)n1`: the TGI in experiment [2], in experiment [3], in experiment [4], in experiment [5], in experiment [6] and in [7] was greater than 10 µM each time. In addition, the TGI in experiment [8], in experiment [9] and in experiment [10] was greater than 10 µM throughout.

With `C=C1C(=O)O[C@H]2[C@H]1CC/C(Cn1cc(-c3ccc(F)cc3)nn1)=C\CC[C@@]1(C)O[C@@H]21`, the GI50 in experiment [1] is 1.22 µM; in [2], 1.64 µM; in experiment [3] it was 0.69 µM; in experiment [4], 2.48 µM; in experiment [5], 3.66 µM; in experiment [6] it was 1.17 µM. Besides, the GI50 is 0.349 µM in [8], 0.423 µM in experiment [9] and 1.41 µM in experiment [10]. Moreover, the TGI in experiment [1] turned out to be 2.65 µM; in experiment [2] it was 3.79 µM; in experiment [3], 1.99 µM; in experiment [4], 6.74 µM; in experiment [5] it was 14 µM; in experiment [6], 2.64 µM. Besides, the values for the TGI in [8], in experiment [9] and in experiment [10] were 1.12 µM, 1.54 µM and 4.92 µM, respectively.

In the case of `CCOC(=O)C(=CNC(=S)N=Nc1c(O)[nH]c2ccccc12)C(=O)OCC`, the TGI in experiment [1], in experiment [2], in [3], in experiment [4], in [5] and in [8] was greater than 100 µM each time. Also, the TGI in experiment [9] and in [10] was greater than 100 µM each time.

Consider `COc1cc(C(=O)O[C@H](C(=O)NCCN(C)CCNC(=O)[C@@H](OC(=O)c2cc(OC)cc3c(C)cccc23)[C@]2(C)CO2)[C@]2(C)CO2)c2cccc(C)c2c1`, for which the GI50 in experiment [1] was 0.264 µM; in experiment [2] it was less than 0.0308 µM; in [3] it was less than 0.0328 µM; in experiment [4] it was 0.182 µM; in experiment [5], less than 0.01 µM; in experiment [6], less than 0.0425 µM. Besides, the GI50 in experiment [8] was 0.0192 µM; in experiment [9], less than 0.01 µM; in [10], 0.246 µM. In addition, the TGI in experiment [1] is 1.58 µM; in experiment [2], 0.3 µM; in experiment [3], 0.162 µM; in experiment [4] it was 0.721 µM; in experiment [5] it was 1.61 µM; in experiment [8] it was 0.173 µM. The TGI in experiment [9] was determined as 0.152 µM; in experiment [10], 5.85 µM.

Regarding `COC1=CC(c2ccc[nH]2)=N/C1=C\c1[nH]c(C)c(CC(=O)OCc2ccccc2)c1C`, the GI50 in experiment [1] was 0.144 µM; in experiment [3], 0.324 µM; in experiment [4] it was 0.33 µM; in [5] it was 0.327 µM; in experiment [6] it was 0.325 µM; in experiment [7], 0.273 µM. The GI50 in experiment [8] was 0.244 µM; in [9], 0.366 µM. The TGI came out at 0.859 µM in experiment [1]; 10.9 µM in [3]; 2.31 µM in experiment [4]; 1.72 µM in experiment [5]; 1.34 µM in [6]; 1.86 µM in experiment [7]. The TGI in experiment [8] was found to be 0.81 µM; in experiment [9] it was 1.79 µM.

Turning to `NC(=O)c1cccc(OCC(O)CO)c1` (configuration not stated), the TGI in [1], in experiment [2], in [3], in experiment [4], in experiment [5] and in [6] was greater than 100 µM throughout. Moreover, the TGI in experiment [7] and in experiment [9] was greater than 100 µM in each case.

Consider `O=C1C=Cc2c1ccc1ccccc21`, for which the GI50 in experiment [1] was 15 µM; in experiment [2] it was 6.55 µM; in experiment [3], 48.8 µM; in experiment [4], 16.6 µM; in experiment [5], 35.7 µM; in experiment [6] it was 25.5 µM. The figures for the GI50 in experiment [7], in [9] and in [10] were 27.6 µM, 44.3 µM and 4.2 µM, respectively. Besides, the TGI in [1] was 53.6 µM; in experiment [2] it was 35.7 µM; in experiment [3] it was greater than 100 µM; in [4], greater than 100 µM; in experiment [5], greater than 100 µM; in experiment [6], greater than 100 µM. For the same compound, the TGI is greater than 100 µM in experiment [7], greater than 100 µM in experiment [9] and 21.9 µM in [10].

The record behind these values is PubChem BioAssay (NCI).
